Test results from patent publication US20120035244A1, “PARP1 TARGETED THERAPY” (THE REGENTS OF THE UNIVERSITY OF MICHIGAN, priority 2010, published 2012).
“Also recorded” adds a separate entry of the source.

What was measured:
[1] = test system: MDA-MB-231 (BRCA1/2 WT); test: CAM xenograft tumors, MDA-MB-231; assay type: in vivo, chicken embryo; details: Olaparib treatment
Method: (§1) The CAM assay was performed as described previously (Zijlstra, A., et al., Cancer research 62, 7083-7092 (2002)). Briefly, fertilized eggs were incubated in a rotary humidified incubator at 38° C. with for 10 days. After releasing the CAM by applying mild amount of low pressure to the hole over the air sac and cutting a square 1-cm^2 window encompassing a second hole near the allantoic vein, cultured human cells that had been pre-treated with siRNA as indicated were detached by trypsinization and re-suspended in complete medium prior to implantation of 2×10^6 cells adjacent to the mesenchyme in each egg. The windows were subsequently, sealed and the eggs were returned to a stationary incubator. Cells were then treated as indicated with 40 mg/kg body weight Olaparib which was administered on day 13, 15 and 17. Day 18 embryos were sacrificed. Tumors were then excised and weighed. […] After incubation of either the metastasis or intravasation assays, the extra-embryonic tumor and CAM, as well as the embryonic liver were harvested and analyzed for the presence of tumor cells by quantitative human alu-specific PCR. […] Quantification of human cells in the extracted DNA was done as described^14. Fluorogenic TaqMan qPCR probes were applied as above, and DNA copy numbers were quantified.

[2] = test system: LNCaP; test: CAM xenograft tumor weight, LNCaP; assay type: in vivo, chicken embryo; details: extended Olaparib treatment, P<0.01
Method: as §1

[3] = test system: LNCaP; test: CAM liver metastasis assay, LNCaP; assay type: in vivo, chicken embryo; details: LNCaP (ETS positive), eggs treated every other day with Olaparib, P=0.1
Method: as §1

[4] = Serum ALT and AST of PC3-ERG mice (liver toxicity); assay type: in vivo
[5] = Fong et al., N Engl J Med 361, 123-134 (2009); cited from earlier work
[6] = test system: ERG-target gene expression; test: qPCR of ERG-target genes in staged PC3-ERG tumors; assay type: in vivo, mice; details: 4 hours, 40 mg/kg Olaparib or 25 mg/kg NU7026
[7] = test system: MDA-PCa-2b-T (ETV1 positive); test: Human prostate cancer tissue xenograft (primagraft) MDA-PCa-2b-T; assay type: in vivo, mice; details: 40 mg/kg Olaparib, P<0.01 (day 8, 12 and 16)
Method: (§2) Human prostate cancer specimens MDA-PCa 2b-T (ETV1 positive), MDA-PCa-133 (ERG positive) and MDA PCa 118b (ETS-negative) were obtained (Li, Z. G., et al. The Journal of clinical investigation 118, 2697-2710 (2008)). Each xenografted tumor tissue was aseptically harvested from the host mice. New recipient mice were anesthetized by injecting […] intraperitoneally for chemical restraint before tumor implantation. About 0.5 cm^3 size of the excised tumor tissue was directly implanted into subcutaneous pockets of 6- to 8-week-old male CB17 SCID mice (Charles River Laboratories) in a laminar flow sterile hood. Sub-cutaneous pocket was carefully closed by applying 1 or 2 wound clips. All mice were monitored for 24 hours after implantation procedure for any apparent physiologic disturbances or missing wound clips. Olaparib (40 mg/Kg body weight) treatment was started after 72 hours. […] Body weight was also monitored weekly during the course of the study.

[8] = test system: RWPE cells stably overexpressing ETV1; test: Basement membrane matrix invasion assay, RWPE-ETV1 cells; assay type: cell-based, human; details: P<0.01 for all PARP1 or DNA-PKcs treatments
Method: For invasion assays, the prostate cell lines RWPE-1 and VCaP were transfected with siRNA or negative controls as indicated. NU7026 (Sigma) and NU1025 (Calbiochem) were dissolved in DMSO and stored at −20° C. in the dark. Forty-eight hours post-transfection/transduction, cells were seeded onto the basement membrane matrix (EC matrix, Chemicon, Temecula, Calif.) in the chamber insert with […] pores of a 24-well culture plate in serum free media. Cells were attracted to the lower chamber by the addition of complete media as a chemoattractant. After 48 hours incubation at 37° C. with 5% CO2, the non-invading cells and EC matrix were gently removed with a cotton swab. Invasive cells, which were located on the lower side of the membrane, were stained with crystal violet, air dried and photographed. To quantify the relative number of invaded cells, colorimetric assays were performed by treating the inserts with 150 μl of 10% acetic acid (v/v) and measuring absorbance of each condition at 560 nm using a spectrophotometer (GE Healthcare).

[9] = test system: panel of cell lines; test: WST chemosensitivity assay (72 hours); assay type: cell-based; details: after 72 hours, any of the cell lines tested
[10] = test system: PC3 model overexpressing T2:ERG; test: γH2A.X foci after radiation (DNA double strand break repair), isogenic PC3 model; assay type: cell-based; details: PC3, pre-treated with 10 μM Olaparib, then radiation
Method: (§3) The effect of ETS overexpression on repair of DNA double strand breaks was assayed. Isogenic PC3 and DU145 models, respectively, overexpressing either T2:ERG or ERG with a deleted ETS domain were pre-treated with or without 10 μM Olaparib and then treated with radiation. Immunofluorescence staining of γH2A.X foci was used to assess total levels of DNA damage and repair rate. The number of cells with >10 γH2A.X foci were quantified at each time point as indicated. Representative photomicrographs were taken 24 hours after treatment using an Olympus confocal microscope with a 100× Oil objective. All experiments were run in triplicate. Error bars are standard error of the mean.

[11] = test system: PC3 xenografts; test: PC3 (PC3-control) mouse xenograft model; assay type: in vivo, mice; details: PC3 / PC3-control (ETS negative); Olaparib 40 mg/kg IP, NU7026 25 mg/kg IP
Text: Olaparib was obtained from Axon Medchem (Groningen, The Netherlands).

[12] = test system: MDA-PCa-118b (ETS negative); test: Human prostate cancer tissue xenograft (primagraft) MDA-PCa-118b; assay type: in vivo, mice; details: 40 mg/kg Olaparib
Method: as §2

[13] = test system: RWPE-ERG cells; test: Chicken chorioallantoic membrane (CAM) intravasation assay, RWPE-ERG cells; assay type: in vivo, chicken embryo; details: lower CAM three days after implantation, 40 mg/kg Olaparib, P<0.1
Method: as §1

[14] = test system: DU145 model overexpressing T2:ERG; test: γH2A.X foci after radiation (DNA double strand break repair), isogenic DU145 model; assay type: cell-based; details: DU145, pre-treated with 10 μM Olaparib, then radiation
Method: as §3

Question: With `O=C(c1cc(Cc2n[nH]c(=O)c3ccccc23)ccc1F)N1CCN(C(=O)C2CC2)CC1` [Olaparib, 4-[3-(4-Cyclopropanecarbonylpiperazine-1-carbonyl)-4-fluorobenzyl]-2H-phthalazin-1-one] as the compound, how does the effect on tumors [1] read?
Answer: Its effect on tumors is “no measurable effect”.

Question: And the “tumor size (weight) on CAM” value [2]?
Answer: The value was “significantly smaller”.

Question: What about the “formation of liver metastases” value [3] of the same compound?
Answer: The value was “blocked the formation of liver metastases”.

Question: And the “liver toxicity as assessed by serum levels of ALT and AST” value [4]?
Answer: Its value is “did not lead to liver toxicity”.

Question: What about the “tolerability in cancer patients” value [5] of the same compound?
Answer: Its value is “well tolerated in cancer patients with a minimal side effect profile; also recorded: well tolerated at doses capable of inhibiting PARP activity”.

Question: And the “ERG-target gene expression in tumors (qPCR)” value [6]?
Answer: Its value is “loss of ERG-target gene expression”.

Question: What about the primagraft growth [7] of the same compound?
Answer: The primagraft growth was “inhibited the growth”.

Question: What about the ETV1-mediated invasion [8] of the same compound?
Answer: The ETV1-mediated invasion was “does now effect invasion”.

Question: What about the “in vitro cell proliferation rate” value [9] of the same compound?
Answer: Its value is “did not have an effect”.

Question: What about the “ERG-enhanced DNA DSB damage repair (γH2A.X foci)” value [10] of the same compound?
Answer: Its value is “blocked; also recorded: reversed by PARP inhibition”.

Question: And the xenograft growth [11]?
Answer: Its xenograft growth is “did not block the growth; also recorded: did not significantly inhibit xenograft growth”.

Question: And the primagraft growth [12]?
Answer: The primagraft growth was “had no effect”.

Question: What about the ERG-mediated intravasation [13] of the same compound?
Answer: Its ERG-mediated intravasation is “sufficient to block ERG-mediated intravasation”.

Question: And the “ERG-enhanced DNA DSB damage repair (γH2A.X foci)” value [14]?
Answer: Its value is “blocked; also recorded: reversed by PARP inhibition”.
